Experimental data: patent US20250115598A1 (Anaxis Pharma Pty Ltd, priority 2021, published 2025)
Like-named read-outs stand apart in the source and are kept apart here.

Experiments:
[1] = system: Immortalised Mouse Dermal Fibroblasts (MDFs); test: Cellular assay: inhibition of TSI induced necroptosis, CellTitre-Glo viability; details: MDF, 3 hours TSI cocktail, read-out: Inhibition of TSI-induced necroptosis (IC50 cell-based assay) in MDF
How it was run: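 Necroptosis induced for 3 h with TSI: rhTNF 100 ng/ml, Smac mimetic 500 nM, caspase inhibitor IDN-6556 10 μM. Mouse dermal fibroblasts had received compound (36 μM top, ten three-fold steps) 30 min beforehand. ATP-based viability scaled between untreated and TSI-only wells; IC50 taken as 4-parameter curve inflection.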

endogenous MLKL in U937 = endogenous MLKL in U937 (Homo sapiens (Human), UniProt Q8NB16); test: Degradation assay: endogenous MLKL in U937 (western blot); details: U937, 24 h incubation, read-out: Degradation of endogenous MLKL in U937 (DC50 cell-based assay)
Sequence of endogenous MLKL in U937 (Q8NB16 whole entry): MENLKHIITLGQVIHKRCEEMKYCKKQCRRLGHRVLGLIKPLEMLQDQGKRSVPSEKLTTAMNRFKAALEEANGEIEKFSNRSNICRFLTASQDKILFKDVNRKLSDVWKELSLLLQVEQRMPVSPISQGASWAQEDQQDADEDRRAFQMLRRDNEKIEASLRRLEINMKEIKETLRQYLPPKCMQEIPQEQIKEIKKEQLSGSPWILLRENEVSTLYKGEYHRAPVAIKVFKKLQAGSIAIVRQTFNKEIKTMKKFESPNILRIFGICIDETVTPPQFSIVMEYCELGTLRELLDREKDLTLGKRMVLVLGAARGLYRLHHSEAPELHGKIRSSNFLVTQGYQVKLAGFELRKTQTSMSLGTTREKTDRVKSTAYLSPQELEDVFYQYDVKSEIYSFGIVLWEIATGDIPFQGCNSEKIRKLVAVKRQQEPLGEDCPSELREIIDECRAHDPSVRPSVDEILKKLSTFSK
How it was run: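 Western blot band intensity of MLKL, adjusted to GAPDH loading and normalized to DMSO-only wells, gave percent degradation. Compound exposure lasted 24 h at final concentrations of 10–0.016 μM in 1:5 steps, in mouse dermal fibroblasts or human U937 cells.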

[2] = Mus musculus, Fibroblast, Table 27

Compound	IC50 ([1]; Table 24) [nM]	IC50 [1, 2] [nM]	DC50 (endogenous MLKL in U937) [nM]
N-(4-(4-amino-1-methyl-7-(1-(1,2,2-trimethylpiperidin-4-yl)-1H-pyrazol-4-yl)-1H-pyrazolo[4,3-c]pyridin-3-yl)-2-((S)-1-(4-fluorophenyl)ethoxy)phenyl)-1,1-difluoromethanesulfonamide [Compound 113]	< 1000		
C[C@H](Oc1cc(-c2nn(C)c3c(-c4cnn(CCCCCCCOc5cccc6c5C(=O)N(C5CCC(=O)NC5=O)C6=O)c4)cnc(N)c23)ccc1NS(=O)(=O)C(F)F)c1ccc(F)cc1 (stereo partly drawn) [Compound 1031, N-(4-{4-amino-7-[1-(7-{[2-(2,6-dioxopiperidin-3-yl)-1,3-dioxo-2,3-dihydro-1H-isoindol-4-yl]oxy}heptyl)-1H-pyrazol-4-yl]-1-methyl-1H-pyrazolo[4,3-c]pyridin-3-yl}-2-[(1 S)-1-(4-fluorophenyl)ethoxy]phenyl)-1,1-difluoromethanesulfonamide]		< 1000	
Cc1ncsc1-c1ccc(CNC(=O)[C@@H]2C[C@@H](O)CN2C(=O)[C@@H](NC(=O)COCCOCCn2cc(-c3cnc(N)c4c(-c5ccc(NS(=O)(=O)C(F)F)c(O[C@@H](C)c6ccc(F)cc6)c5)nn(C)c34)cn2)C(C)(C)C)cc1 [Compound 1006, (2S,4R)-1-[(2S)-2-(2-{2-[2-(4-{4-amino-3-[4-(difluoromethanesulfonamido)-3-[(1S)-1-(4-fluorophenyl)ethoxy]phenyl]-1-methyl-1H-pyrazolo[4,3-c]pyridin-7-yl}-1H-pyrazol-1-yl)ethoxy]ethoxy}acetamido)-3,3-dimethylbutanoyl]-4-hydroxy-N-{[4-(4-methyl-1,3-thiazol-5-yl)phenyl]methyl}pyrrolidine-2-carboxamide]		1000 to 10000	< 1000
Nc1ncc(-c2cnn(C3CCOCC3)c2)c2[nH]nc(-c3ccc(NS(=O)(=O)C(F)F)c(OCc4cccc(Cl)c4)c3)c12 [Compound 131]	1000 to 10000		
Cc1ncsc1-c1ccc(CNC(=O)[C@@H]2C[C@@H](O)CN2C(=O)[C@@H](NC(=O)COCCN2CCC(n3cc(-c4cnc(N)c5c(-c6ccc(NS(=O)(=O)C(F)F)c(O[C@@H](C)c7ccc(F)cc7)c6)nn(C)c45)cn3)CC2)C(C)(C)C)cc1 [Compound 1018, (2S,4R)-1-[(2S)-2-(2-{2-[4-(4-{4-amino-3-[4-(difluoromethanesulfonamido)-3-[(1S)-1-(4-fluorophenyl)ethoxy]phenyl]-1-methyl-1H-pyrazolo[4,3-c]pyridin-7-yl}-1H-pyrazol-1-yl)piperidin-1-yl]ethoxy}acetamido)-3,3-dimethylbutanoyl]-4-hydroxy-N-{[4-(4-methyl-1,3-thiazol-5-yl)phenyl]methyl}pyrrolidine-2-carboxamide]		1000 to 10000	
Cc1ncsc1-c1ccc(CNC(=O)[C@@H]2C[C@@H](O)CN2C(=O)[C@@H](NC(=O)CCCCCCn2cc(-c3cnc(N)c4c(-c5ccc(NS(=O)(=O)C(F)F)c(O[C@@H](C)c6ccc(F)cc6)c5)nn(C)c34)cn2)C(C)(C)C)cc1 [Compound 1008, (2S,4R)-1-[(2S)-2-[7-(4-{4-amino-3-[4-(difluoromethanesulfonamido)-3-[(1 S)-1-(4-fluorophenyl)ethoxy]phenyl]-1-methyl-1H-pyrazolo[4,3-c]pyridin-7-yl}-1H-pyrazol-1-yl)heptanamido]-3,3-dimethylbutanoyl]-4-hydroxy-N-{[4-(4-methyl-1,3-thiazol-5-yl)phenyl]methyl}pyrrolidine-2-carboxamide]		< 1000	< 1000
Cc1ncsc1-c1ccc(CNC(=O)[C@@H]2C[C@@H](O)CN2C(=O)[C@@H](NC(=O)COCCN2CCCC(n3cc(-c4cnc(N)c5c(-c6ccc(NS(=O)(=O)C(F)F)c(O[C@@H](C)c7ccc(F)cc7)c6)nn(C)c45)cn3)C2)C(C)(C)C)cc1 (stereo partly drawn) [Compound 1015, (2S,4R)-1-[(2S)-2-(2-{2-[3-(4-{4-amino-3-[4-(difluoromethanesulfonamido)-3-[(1S)-1-(4-fluorophenyl)ethoxy]phenyl]-1-methyl-1H-pyrazolo[4,3-c]pyridin-7-yl}-1H-pyrazol-1-yl)piperidin-1-yl]ethoxy}acetamido)-3,3-dimethylbutanoyl]-4-hydroxy-N-{[4-(4-methyl-1,3-thiazol-5-yl)phenyl]methyl}pyrrolidine-2-carboxamide]		1000 to 10000	1000 to 10000
Cc1ncsc1-c1ccc(CNC(=O)[C@@H]2C[C@@H](O)CN2C(=O)[C@@H](NC(=O)CCN2CCCC(n3cc(-c4cnc(N)c5c(-c6ccc(NS(=O)(=O)C(F)F)c(O[C@@H](C)c7ccc(F)cc7)c6)nn(C)c45)cn3)C2)C(C)(C)C)cc1 (stereo partly drawn) [Compound 1014, (2S,4R)-1-[(2S)-2-{3-[3-(4-{4-amino-3-[4-(difluoromethanesulfonamido)-3-[(1S)-1-(4-fluorophenyl)ethoxy]phenyl]-1-methyl-1H-pyrazolo[4,3-c]pyridin-7-yl}-1H-pyrazol-1-yl)piperidin-1-yl]propanamido}-3,3-dimethylbutanoyl]-4-hydroxy-N-{[4-(4-methyl-1,3-thiazol-5-yl)phenyl]methyl}pyrrolidine-2-carboxamide]		1000 to 10000	< 1000
